Test: Acute toxicity in Sprague-Dawley rat assessed as mortality administered orally as single dose measured up to 1 month
Details: in vivo, po

Cc1nn(-c2ccccc2)c(Oc2ccc(-c3nc4cc(C(=O)O)ccc4[nH]3)cc2)c1[N+](=O)[O-]
LD50: 400 mg/kg

— ChEMBL document CHEMBL4033655, “Part I: Design, synthesis and biological evaluation of novel pyrazole-benzimidazole conjugates as checkpoint kinase 2 (Chk2) inhibitors with studying their activities alone and in combination with genotoxic drugs” (Eur J Med Chem, 2017)
